Laboratory results as given in patent publication US6534650B2, “Benzisoxazole and 4-amidino-3-hydroxyphenyl chemical intermediates” (Eli Lilly and Company, priority 1996, dated 2003).
Counter-ions that a name gives are not always drawn. Like-named read-outs stand apart in the source and are kept apart here.

Legend:
[1] = Octanol/water distribution coefficient logD at pH 7.4; assay type: physicochemical
[2] = test system: thrombin time (TT) in test plasma; assay: Anticoagulation determination: thrombin time (TT) in plasma; assay type: biochemical; details: compound added to plasma; linear extrapolation to doubling of the clotting time
Procedure: Dog plasma and rat plasma are obtained from conscious mixed-breed hounds (either sex, hazelton-LRE, Kalamazoo, Mich., U.S.A.) or from anesthetized male Sprague-Dawley rats (Harlan Sprague-Dawley, Inc., Indianapolis, Ind., U.S.A.) by venipuncture into 3.8 percent citrate. Fibrinogen is prepared from in-date ACD human blood as the fraction I-2 according to previous procedures and specifications. Smith, Biochem. J., 185, 1-11 (1980); and Smith, et al., Biochemistry, 11, 2958-2967 (1972). Human fibrinogen is also purchased as 98 percent pure/plasmin free from American Diagnostica, Greenwich, Conn. Coagulation reagents ACTIN, Thromboplastin, and Human plasma are from Baxter Healthcare Corp., Dade Division, Miami, Fla. Bovine thrombin from Parke-Davis (Detroit, Mich.) is used for coagulation assays in plasma.
Coagulation assay procedures are as previously described. Smith, et al., Thrombosis Research, 50, 163-174 (1988). A CoAScreener coagulation instrument (American LABor, Inc.) is used for all coagulation assay measurements. The thrombin time (TT) is measured by adding 0.05 ml saline and 0.05 ml thrombin (10 NIH units/ml) to 0.05 ml test plasma. The activated partial thromboplastin time (APTT) is measured by incubation of 0.05 ml test plasma with 0.05 ml Actin reagent for 120 seconds followed by 0.05 ml CaCl2 (0.02M). The prothrombin time (PT) is measured by adding 0.05 ml saline and 0.05 ml Thromboplastin-C reagent to 0.05 ml test plasma. The compounds of formula I are added to human or animal plasma over a wide range of concentrations to determine prolongation effects on the TT, APTT and PT assays. Linear extrapolations are performed to estimate the concentrations required to double the clotting time for each assay. Each of the particularly preferred examples of the invention listed above was determined to have a TT value of less than 50 ng/mL. For example, the respective values (in ng/mL) for TT were 6, 6 and 23 for the compounds of Examples 1, 3 and 5.

human thrombin = human thrombin (Homo sapiens, UniProt P00734); assay: Inhibition of the amidase activity of thrombin (chromogenic substrate), Kass; assay type: biochemical; details: purified human thrombin, N-benzoyl-L-Phe-L-Val-L-Arg-p-nitroanilide substrate, pH 7.4; mean over a range of concentrations
Procedure: The assay is carried out by mixing 50 μl buffer (0.03M Tris, 0.15M NaCl, pH 7.4) with 25 μl of human thrombin solution (purified human thrombin, Enzyme Research Laboratories, South Bend, Ind., at 8 NIH units/ml) and 25 μl of test compound in a solvent (50% aqueous methanol (v:v)). Then 150 μl of an aqueous solution of the chromogenic substate (at 0.25 mg/ml) are added and the rates of hydrolysis of the substrate are measured by monitoring the reactions at 405 nm for the release of p-nitroaniline. Standard curves are constructed by plotting free thrombin concentration against hydrolysis rate. The hydrolysis rates observed with test compounds are then converted to “free thrombin” values in the respective assays by use of the standard curves. The bound thrombin (bound to test compound) is calculated by subtracting the amount of free thrombin observed in each assay from the known initial amount of thrombin used in the assay. The amount of free inhibitor in each assay is calculated by subtracting the number of moles of bound thrombin from the number of moles of added inhibitor (test compound).
The Kass value is the hypothetical equilibrium constant for the reaction between thrombin and the test compound (I). [formula]
Kass is calculated for a range of concentrations of test compounds and the mean value reported in units of liter per mole. […] For example, each of the particularly preferred examples of the invention listed above was determined to have a Kass of at least 100×10^6 L/mole.

Structure (SMILES) | ΔlogD(7.4) ([1]; change versus the corresponding amidino-phenyl compound) [log units] | logD ([1]; octanol/water distribution coefficient, read-out: logD(7.4)) | TT (concentration required to double the thrombin clotting time) [2] [ng/mL] | Kass (hypothetical equilibrium constant for the reaction between thrombin and the test compound) (human thrombin) | logD [1] | ΔlogD(7.4) [1] [log units]
N=C(N)c1ccc(CNC(=O)[C@@H]2CCCN2C(=O)[C@@H](CC2CCCCC2)NCC(=O)O)cc1O [Example 3, N-carboxymethyl-D-cyclohexylalanyl-N-[[4-(aminoiminomethyl)-3-hydroxyphenyl]methyl]-L-prolinamide hydrochloride] | 1.13 | 0.55 | 6 | 1,200×10^6 L/mole |  | 
CCS(=O)(=O)N[C@H](CC1CCCCC1)C(=O)N1CCC[C@H]1C(=O)NCc1ccc(C(=N)N)c(O)c1 [Example 5, N-ethylsulfonyl-D-cyclohexylalanyl-N-[[4-(aminoiminomethyl)-3-hydroxyphenyl]methyl]-L-prolinamide hydrochloride] |  |  | 23 | 1e+08 L/mol | 1.91 | 5.80
N=C(N)c1ccc(CNC(=O)[C@@H]2CCCN2C(=O)[C@H](N)CC2CCCCC2)cc1O [Example 1, D-cyclohexylalanyl-N-[[4-(aminoiminomethyl)-3-hydroxyphenyl]methyl]-L-prolinamide dihydrochloride] |  |  | 6 | 7.7e+08 L/mol |  | 
